{"source": "paper PMC10889512", "about": "“Pyrimidine Schiff Bases: Synthesis, Structural Characterization and Recent Studies on Biological Activities” (International Journal of Molecular Sciences, 2024)", "key": {"[1]": {"test_system": "AGS cells", "experiment": "Flow cytometry FDA/PI staining, cell viability, AGS", "format": "cell-based, human", "method": "A detailed analysis of potential cytotoxic mechanisms has been performed only for the selected compound (4b) where the IC50 values under 100 µM were detected in the screening NR assay. Flow cytometry was performed on the A172 and AGS cell lines. Cells were incubated with compound 4b at IC50 for 24, 48, and 72 h before analysis. Fluorescein diacetate (FDA) and propidium iodide (PI) were used as indicators for viable and nonviable (necrotic) cells. Most of the events were captured in the first and the fourth quadrant, which represent viable and necrotic cells, respectively. […] Similar results were obtained for the AGS cell line (Figure 8B), where the viability was 60.95%/55.10%/44.99% after the same incubation periods, respectively. Some events occurred in the second quadrant, but it was difficult to unequivocally categorize them into viable or nonviable (apoptotic/necrotic) cell populations, and thus more sensitive dyes, able to distinguish between the types of cell death, were needed.\nTwo approaches for flow cytometry were used—FDA/PI staining to determine cell viability and annexin V/PI staining for cell death pathway determination.\nFor cell viability determination, cells were plated in 6-well plates at a density of 1 × 10^5 cells/well and incubated for 24 h at 37 °C, 5% CO2 and in a humidified atmosphere. Next, cells were treated with 4b at a concentration calculated as IC50 in neutral red uptake assay. After 24, 48, and 72 h incubation, the cells (either adhered or floating) were collected, centrifuged at 1600 rpm, and washed with PBS. FDA and PI stock solution at a 1 mM concentration were prepared in DMSO and H2O, respectively. After centrifugation and supernatant discarding, cells were stained with FDA at a final concentration of 1 µM prepared in PBS and incubated in the dark. After 15 min, they were centrifuged at 1600 rpm, resuspended in ice-cold PBS, and placed on ice. Samples were stained with 1 µM PI for 2 min before the cytometry evaluation. […]"}, "[2]": {"test_system": "K. pneumoniae 700603", "experiment": "Antimicrobial activity assay, microdilution", "format": "cell-based, Klebsiella pneumoniae", "details": "concentration range from 0.5 µg/mL to 256 µg/mL", "method": "(§1) In vitro antimicrobial and antifungal activity was screened using microdilution and modified Richard’s medium. The assay was performed for compounds 4a, 4b, 4c, and 4d with seven reference microbial strains from ATTC (E. coli 25922, S. aureus 43300, K. pneumoniae 700603, A. baumannii 19606, P. aeruginosa 27853, E. faecalis 29212, and C. albicans 10231).\n(§2) Seven reference strains from the ATCC collection (Escherichia coli 25922, Staphylococcus aureus 43300, Klebsiella pneumoniae 13883, Acinetobacter baumannii 19606, Pseudomonas aeruginosa 27853, Enterococcus faecalis 29212, and Candida albicans 10231) were used. The assay was performed according to a modified version of Richard et al.’s protocol and ISO standards 20776-1:2019 and 16256:2021 [78, 79]. Microdilution with spectrophotometric measurement was used to calculate MIC50 (minimal inhibitory concentration which decreased the microorganisms’ viability to 50%) values. Briefly, compounds were prepared 100× concentrated in DMSO, and during the whole experiment, they were diluted to 1× with TSB. Serial dilutions of tested compounds were made directly on plates at a concentration range of 0.5 to 256 µg/mL. Microorganisms were incubated for 24 h at 37 °C (bacteria) or 25 °C (yeast) on Petri dishes with TSA. The bacteria/yeast suspensions were prepared at a density 5 × 10^5 CFU/mL (for bacteria) or 0.5–2.5 × 10^5 CFU/mL (for yeast) with TSB. Also, appropriate controls were contained in the experiment: the positive control consisted of a specific strain in TSB, and the negative control was TSB alone. To ensure that used strains were not modified and were still responding to antibacterial/antifungal compounds established by EUCAST, additional tests were conducted with levofloxacin, gentamicin, and amphotericin B. Microplates were incubated on a shaker for 24 h at 37 ± 1 °C or 25 ± 1 °C for the bacteria and yeast strains, respectively. After the incubation, spectrophotometric measurement was performed at 580 nm. MIC50 was calculated by comparing the results obtained for experimental sets with positive controls. Next, 50 µL aliquots of 1% (m/v) TTC solution were added to each well. The plates were incubated on the shaker for 24 h at 37/25 °C. In living microbial cells, colourless TTC is converted into red formazan crystals, which allows for visual observation and MBC/MFC (minimal bactericidal/fungicidal concentration) value assessment."}, "[3]": {"test_system": "C. albicans 10231", "experiment": "Antifungal activity assay, microdilution", "format": "cell-based, Candida albicans", "details": "concentration range from 0.5 µg/mL to 256 µg/mL", "method": "as §1, §2"}, "[4]": {"test_system": "AGS", "experiment": "Microscopic observations, Hoechst 33342 stain, AGS", "format": "cell-based, human", "details": "at IC50, 24, 48 and 72 h", "method": "In order to obtain information about cells and nuclei morphology, fluorescence microscopy was used. Briefly, after the incubation of A172 and AGS with compound 4b (at three time periods, namely 24, 48, and 72 h) cells were stained with Hoechst 33342 dye, which binds to DNA. Phase-contrast observations were also performed. […] Also, the cell membrane should be intact with a visible halo around the cells. In necrotic cells, the nuclei edges tend to be less clearly defined, and Hoechst 33342 results in a decreased fluorescence signal. This effect can be seen in a1,2 (A172) and b1,2 (AGS). […] To visualize morphological changes which occurred in the treated cells, microscopic observations were conducted using Hoechst 33342 stain. It is a blue fluorescent stain which allows observations of nuclei in eukaryotic cells. Also observations in bright fields were performed. Cells were stained according to the manufacturer’s protocol. Briefly, cells were plated in 12-well plates at a density of 1 × 10^5 cells/well and were incubated for 24 h at 37 °C, 5% CO2 in a humidified atmosphere. Next, cells were treated with 4b at an IC50 and further incubated for 24, 48, and 72 h. For microscopic observations cells were collected, washed with PBS and stained for 15 min with 1 µg/mL Hoechst 33342 dye. […]"}}}
{"compound": "Cc1nc(-c2ccccc2)nc(Nc2ccc(F)cc2)c1C=Nc1cccc(Cl)c1", "note": "[compound 4b, 5-{[(3-chlorophenyl)imino]methyl}-N-(4-fluorophenyl)-6-methyl-2-phenylpyrimidin-4-amine]", "values": [{"measurement": "Q1 events (viable cells; viability), FDA/PI", "setting": "[1]; at IC50, 24 h", "result": 60.95, "unit": "%"}, {"measurement": "Q1 events (viable cells; viability), FDA/PI", "setting": "[1]; at IC50, 48 h", "result": 55.10, "unit": "%"}, {"measurement": "Q1 events (viable cells; viability), FDA/PI", "setting": "[1]; at IC50, 72 h", "result": 44.99, "unit": "%"}, {"measurement": "MIC and MBC/MFC activity", "setting": "[2]", "result": "Neither MIC nor MBC/MFC activity was observed"}, {"measurement": "MIC and MBC/MFC activity", "setting": "[3]", "result": "Neither MIC nor MBC/MFC activity was observed"}, {"measurement": "cell and nuclei morphology", "setting": "[4]", "result": "leads to necrosis"}]}
